Reference: patent US8906925B2, “Pyrido[4,3-B]indoles containing rigid moieties” (Medivation Technologies, Inc., priority 2008, dated 2014)

What was measured:
[1] = target: T1, human recombinant serotonin (5-Hydroxytryptamine) 5-HT6 receptor (Homo sapiens, UniProt P50406); experiment: Serotonin 5-HT6 radioligand binding ([3H]LSD); conditions: for inhibition at 1 µM / Inhibition of ligand binding, Serotonin 5-HT6 (percent inhibition of specific binding): compound at 1 μM; for Inhibition of ligand binding, Serotonin 5-HT6 (percent inhibition of specific binding): 1 µM
T1 construct: expressed in transfected cells; host or cells: human HeLa cells
Protocol: Compounds of the invention were incubated with 1.5 nM [3H]Lysergic acid diethylamide (LSD) for 120 min. at 37° C. […] Receptor proteins were filtered and washed, the filters were then counted to determine [3H]LSD specifically bound. Compounds were screened at 1 μM or lower, using 1% DMSO as vehicle. Biochemical assay results are presented as the percent inhibition of specific binding in Table 10.

[2] = target: T2, human recombinant adrenergic α2B receptor (Homo sapiens, UniProt P18089); experiment: Adrenergic α2B radioligand binding ([3H]Rauwolscine); conditions: percent inhibition of specific binding, compound at 1 μM; for inhibition at 1 µM: read-out: Inhibition of ligand binding, Adrenergic α2B
T2 construct: expressed in transfected cells; host or cells: Chinese hamster ovary (CHO-K1) cells
T2 sequence (P18089 1-450): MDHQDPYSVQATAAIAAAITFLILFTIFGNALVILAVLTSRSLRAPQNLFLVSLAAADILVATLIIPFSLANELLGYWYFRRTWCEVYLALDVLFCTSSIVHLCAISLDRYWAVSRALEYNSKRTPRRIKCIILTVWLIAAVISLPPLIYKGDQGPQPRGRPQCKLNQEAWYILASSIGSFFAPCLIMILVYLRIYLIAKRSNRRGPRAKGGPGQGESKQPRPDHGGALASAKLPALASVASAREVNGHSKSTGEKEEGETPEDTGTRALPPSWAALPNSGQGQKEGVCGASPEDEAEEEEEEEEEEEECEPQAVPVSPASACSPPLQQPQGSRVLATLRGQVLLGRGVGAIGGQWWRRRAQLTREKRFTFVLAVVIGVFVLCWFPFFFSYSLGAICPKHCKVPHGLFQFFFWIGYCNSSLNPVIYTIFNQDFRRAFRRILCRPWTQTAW
How it was run: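 Membranes from CHO-K1 cells expressing the receptor were incubated with 2.5 nM [3H]Rauwolscine for 60 min at 25 °C in Tris-HCl buffer pH 7.4 with MgCl2, EDTA and BSA. Non-specific binding was defined with 10 μM prazosin. Compounds were tested at ≤1 μM in 1% DMSO and read out as % inhibition of specific binding after filtration.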

[3] = target: T3, human recombinant histamine H2 receptor (Homo sapiens, UniProt P25021); experiment: Histamine H2 radioligand binding ([125I]Aminopotentidine); conditions: for inhibition at 1 µM: read-out: Histamine Binding (1 μM) H2, percent inhibition of specific binding, 1 μM
T3 construct: expressed in transfected cells; host or cells: Chinese hamster ovary (CHO) K1 cells
How it was run: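 CHO-K1 cells expressing human recombinant H2 receptor, 50 mM phosphate buffer pH 7.4; compounds incubated with 0.1 nM [125I]aminopotentidine for 120 min at 25 °C. Nonspecific binding defined with 3 μM tiotidine; specifically bound radioligand counted after filtration and washing.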

[4] = target: human dopamine D2L receptor (Homo sapiens, UniProt P14416); experiment: Dopamine D2L radioligand binding ([3H]Spiperone); conditions: percent inhibition of specific binding, compound at 1 μM; for inhibition at 1 µM: read-out: Inhibition of ligand binding, Dopamine D2L; for Inhibition of ligand binding, Dopamine D2L: 1 µM
Text: Non-specific binding was estimated in the presence of […] Haloperidol. Receptor proteins were filtered and washed, the filters were then counted to determine [^3H]Spiperone specifically bound. […] Biochemical assay results are presented as the percent inhibition of specific binding in Table 9.

[5] = target: T4, human recombinant adrenergic α1D receptor (Homo sapiens, UniProt P25100); experiment: Adrenergic α1D radioligand binding ([3H]Prozosin); conditions: percent inhibition of specific binding, compound at 1 μM; for inhibition at 1 µM: read-out: Inhibition of ligand binding, Adrenergic α1D
T4 construct: expressed in transfected cells; host or cells: human embryonic kidney (HEK-293) cells
T4 sequence (P25100 1-572): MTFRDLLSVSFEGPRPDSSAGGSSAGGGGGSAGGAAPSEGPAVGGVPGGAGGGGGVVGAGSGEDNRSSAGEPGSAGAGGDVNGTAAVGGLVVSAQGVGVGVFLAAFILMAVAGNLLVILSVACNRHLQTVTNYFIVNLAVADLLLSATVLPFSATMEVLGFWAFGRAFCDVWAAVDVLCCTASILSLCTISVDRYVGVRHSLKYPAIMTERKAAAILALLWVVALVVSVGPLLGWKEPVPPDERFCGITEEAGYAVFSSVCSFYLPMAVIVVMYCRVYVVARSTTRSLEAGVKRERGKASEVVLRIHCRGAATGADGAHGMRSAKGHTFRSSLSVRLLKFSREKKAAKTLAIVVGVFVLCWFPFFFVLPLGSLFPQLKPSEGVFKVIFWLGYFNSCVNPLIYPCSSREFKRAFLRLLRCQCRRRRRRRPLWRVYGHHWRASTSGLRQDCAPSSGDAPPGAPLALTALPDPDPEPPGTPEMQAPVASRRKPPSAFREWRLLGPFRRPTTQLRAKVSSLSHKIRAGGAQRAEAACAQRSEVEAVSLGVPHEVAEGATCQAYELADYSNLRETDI
Protocol: Compounds of invention were incubated with 0.6 nM [^3H]Prozosin for 60 min. at 25° C. Non-specific binding was estimated in the presence of 10 μM phentolamine. Receptor proteins were filtered and washed, the filters were then counted to determine [^3H]Prozosin specifically bound. Compounds were screened at 1 μM or lower, using 1% DMSO as vehicle. Biochemical assay results are presented as the percent inhibition of specific binding in Table 9.

[6] = target: T5, human recombinant serotonin (5-Hydroxytryptamine) 5-HT2A receptor (Homo sapiens, UniProt P28223); experiment: Serotonin 5-HT2A radioligand binding ([3H]Ketanserin); conditions: for inhibition at 1 µM: read-out: Inhibition of ligand binding, Serotonin 5-HT2A (percent inhibition of specific binding), compound at 1 μM; for Inhibition of ligand binding, Serotonin 5-HT2A (percent inhibition of specific binding): compound at 1 μM, 1 µM
T5 construct: expressed in transfected cells; host or cells: Chinese hamster ovary (CHO-K1) cells
Protocol: Compounds of the invention were incubated with 0.5 nM [^3H]Ketanserin for 60 min. at 25° C. Non-specific binding was estimated in the presence of 1 μM Mianserin. Receptor proteins were filtered and washed, the filters were then counted to determine [^3H]Ketanserin specifically bound.

[7] = target: human recombinant serotonin (5-Hydroxytryptamine) 5-HT7 receptor (Homo sapiens, UniProt P34969); experiment: Serotonin 5-HT7 radioligand binding ([3H]LSD); conditions: compound at 1 μM; for inhibition at 1 µM: read-out: Inhibition of ligand binding, Serotonin 5-HT7 (percent inhibition of specific binding)
Text: Receptor proteins were filtered and washed, the filters were then counted to determine [^3H]LSD specifically bound.

[8] = read-out: Inhibition of ligand binding, Serotonin 5-HT6 (percent inhibition of specific binding)

Sequence of human dopamine D2L receptor (P14416 whole entry): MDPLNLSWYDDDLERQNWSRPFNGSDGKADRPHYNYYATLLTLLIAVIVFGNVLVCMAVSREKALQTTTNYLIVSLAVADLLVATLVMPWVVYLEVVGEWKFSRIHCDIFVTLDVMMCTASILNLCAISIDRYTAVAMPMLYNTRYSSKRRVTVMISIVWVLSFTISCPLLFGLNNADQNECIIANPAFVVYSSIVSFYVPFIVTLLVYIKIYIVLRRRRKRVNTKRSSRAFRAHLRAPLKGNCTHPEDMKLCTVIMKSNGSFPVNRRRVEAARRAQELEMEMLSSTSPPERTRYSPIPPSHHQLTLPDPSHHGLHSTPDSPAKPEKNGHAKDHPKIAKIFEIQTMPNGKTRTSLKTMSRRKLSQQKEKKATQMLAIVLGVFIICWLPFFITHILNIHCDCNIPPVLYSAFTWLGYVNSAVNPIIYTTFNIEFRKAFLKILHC
T5 sequence (P28223 whole entry): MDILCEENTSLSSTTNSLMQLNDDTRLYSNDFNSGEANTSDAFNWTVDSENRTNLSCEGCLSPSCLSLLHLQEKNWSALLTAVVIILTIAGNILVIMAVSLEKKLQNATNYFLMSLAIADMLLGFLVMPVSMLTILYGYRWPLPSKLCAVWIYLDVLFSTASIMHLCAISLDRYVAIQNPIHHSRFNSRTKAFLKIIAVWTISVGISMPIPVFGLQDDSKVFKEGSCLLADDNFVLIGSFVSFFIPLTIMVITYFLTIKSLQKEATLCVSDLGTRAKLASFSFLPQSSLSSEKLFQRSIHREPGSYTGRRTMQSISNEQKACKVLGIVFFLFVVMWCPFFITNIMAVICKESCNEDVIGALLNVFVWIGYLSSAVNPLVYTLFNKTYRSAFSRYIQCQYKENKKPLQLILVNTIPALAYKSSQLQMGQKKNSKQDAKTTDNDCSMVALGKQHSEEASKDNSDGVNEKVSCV
T1 sequence (P50406 whole entry): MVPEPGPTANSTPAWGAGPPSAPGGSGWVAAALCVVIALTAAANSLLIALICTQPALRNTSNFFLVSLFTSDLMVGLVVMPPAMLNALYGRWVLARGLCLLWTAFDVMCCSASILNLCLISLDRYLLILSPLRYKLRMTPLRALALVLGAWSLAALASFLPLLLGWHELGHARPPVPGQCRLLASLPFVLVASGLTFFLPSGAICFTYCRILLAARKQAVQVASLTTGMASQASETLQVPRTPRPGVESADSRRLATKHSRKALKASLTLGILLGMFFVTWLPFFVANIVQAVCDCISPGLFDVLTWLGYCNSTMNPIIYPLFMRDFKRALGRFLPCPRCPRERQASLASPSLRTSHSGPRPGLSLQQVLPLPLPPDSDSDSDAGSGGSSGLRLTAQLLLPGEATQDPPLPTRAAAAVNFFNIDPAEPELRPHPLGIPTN
Sequence of human recombinant serotonin (5-Hydroxytryptamine) 5-HT7 receptor (P34969 whole entry): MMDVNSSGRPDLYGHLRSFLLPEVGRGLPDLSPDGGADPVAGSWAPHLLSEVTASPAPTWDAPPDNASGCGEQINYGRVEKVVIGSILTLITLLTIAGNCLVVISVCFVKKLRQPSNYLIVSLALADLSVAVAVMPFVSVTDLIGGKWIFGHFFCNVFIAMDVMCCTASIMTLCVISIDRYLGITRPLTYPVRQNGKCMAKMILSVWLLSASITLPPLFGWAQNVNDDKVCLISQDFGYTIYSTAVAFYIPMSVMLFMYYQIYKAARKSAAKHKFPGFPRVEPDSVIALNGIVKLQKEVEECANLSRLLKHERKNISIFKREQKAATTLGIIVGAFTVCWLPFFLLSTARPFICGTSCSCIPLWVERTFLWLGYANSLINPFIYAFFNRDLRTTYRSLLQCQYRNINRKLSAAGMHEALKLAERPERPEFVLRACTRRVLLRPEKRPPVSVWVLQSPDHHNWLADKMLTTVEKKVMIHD
T3 sequence (P25021 whole entry): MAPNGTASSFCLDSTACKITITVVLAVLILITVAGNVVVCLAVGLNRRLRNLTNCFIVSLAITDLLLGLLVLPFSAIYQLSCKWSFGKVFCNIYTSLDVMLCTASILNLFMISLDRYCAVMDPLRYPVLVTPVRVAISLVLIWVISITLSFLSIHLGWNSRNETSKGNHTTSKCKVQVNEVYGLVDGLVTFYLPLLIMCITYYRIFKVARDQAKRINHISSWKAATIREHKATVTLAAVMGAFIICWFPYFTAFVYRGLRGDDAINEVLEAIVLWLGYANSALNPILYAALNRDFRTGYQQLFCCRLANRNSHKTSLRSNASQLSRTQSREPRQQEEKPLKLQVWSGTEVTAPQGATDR

Row | Compound | inhibition at 1 µM [1, 8] | inhibition at 1 µM [2] | inhibition at 1 µM [3] | inhibition at 1 µM [4] | inhibition at 1 µM [5] | inhibition at 1 µM [6] | inhibition at 1 µM [7] | Inhibition of ligand binding, Serotonin 5-HT6 (percent inhibition of specific binding) [1] | Inhibition of ligand binding, Adrenergic α2B ([2]; 1 µM) | Histamine Binding (1 μM) H2, percent inhibition of specific binding ([3]; 1 μM) | Inhibition of ligand binding, Dopamine D2L [4] | Inhibition of ligand binding, Adrenergic α1D ([5]; 1 µM) | Inhibition of ligand binding, Serotonin 5-HT2A (percent inhibition of specific binding) [6] | Inhibition of ligand binding, Serotonin 5-HT7 (percent inhibition of specific binding) ([7]; 1 µM) | inhibition at 0.1 µM ([1]; compound at 0.1 μM, read-out: Inhibition of ligand binding, Serotonin 5-HT6 (percent inhibition of specific binding)) | inhibition at 0.1 µM ([6]; read-out: Inhibition of ligand binding, Serotonin 5-HT2A (percent inhibition of specific binding), compound at 0.1 μM) | Inhibition of ligand binding, Serotonin 5-HT7 (percent inhibition of specific binding) [7]
1 | CN1CCc2c(c3cc(Cl)ccc3n2/C=C(/c2ccc(F)cc2)C2CCC2)C1 [Compound 206, (E)-8-chloro-5-(2-cyclobutyl-2-(4-fluorophenyl)vinyl)-2-methyl-2,3,4,5-tetrahydro-1H-pyrido[4,3-b]indole] | 102% | 89% | 102% | 76% | 102% | 98% | 93% | – | – | – | – | – | – | – | – | – | –
2 | CNC(=O)C/C(=C\n1c2c(c3cc(C)ccc31)CN(C)CC2)c1ccc(F)cc1 [Compound 207, (E)-4-(2,8-dimethyl-3,4-dihydro-1H-pyrido[4,3-b]indol-5(2H)-yl)-3-(4-fluorophenyl)-N-methylbut-3-enamide] | 58% | 80% | 46% | 12% | 100% | 97% | 92% | – | – | – | – | – | – | – | – | – | –
3 | CCCC/C(=C\n1c2c(c3cc(Cl)ccc31)CN(C)CC2)c1ccc(F)cc1 [Compound 208, (E)-8-chloro-5-(2-(4-fluorophenyl)hex-1-enyl)-2-methyl-2,3,4,5-tetrahydro-1H-pyrido[4,3-b]indole] | 103% | 103% | 102% | 78% | 89% | 102% | 100% | – | – | – | – | – | – | – | – | – | –
4 | Cc1ccc2c(c1)c1c(n2/C=C(\CC(=O)O)c2ccc(F)cc2)CCN(C)C1 [Compound 209, (E)-4-(2,8-dimethyl-3,4-dihydro-1H-pyrido[4,3-b]indol-5(2H)-yl)-3-(4-fluorophenyl)but-3-enoic acid] | 41% | 59% | 20% | 7% | 21% | 93% | 36% | – | – | – | – | – | – | – | – | – | –
5 | C/C(=C\n1c2c(c3cc(Cl)ccc31)CN(C)CC2)c1ccc(Cl)cc1Cl [Compound 210, (E)-8-chloro-5-(2-(2,4-dichlorophenyl)prop-1-enyl)-2-methyl-2,3,4,5-tetrahydro-1H-pyrido[4,3-b]indole] | – | – | – | – | – | – | – | 76% | 102% | 96% | 52% | 17% | 98% | 65% | – | – | –
6 | C/C(=C\n1c2c(c3cc(C)ccc31)CN(C)CC2)c1ccc(Cl)cc1 [Compound 211, (E)-5-(2-(4-chlorophenyl)prop-1-enyl)-2,8-dimethyl-2,3,4,5-tetrahydro-1H-pyrido[4,3-b]indole] | 98% | 114% | 100% | 39% | 96% | 99% | 101% | – | – | – | 49% | – | – | – | 60% | 97% | –
7 | C/C(=C/n1c2c(c3cc(Cl)ccc31)CN(C)CC2)c1ccccc1F [Compound 212, (Z)-8-chloro-5-(2-(2-fluorophenyl)prop-1-enyl)-2-methyl-2,3,4,5-tetrahydro-1H-pyrido[4,3-b]indole] | 97% | 105% | 84% | 32% | 78% | 91% | 98% | – | – | – | – | – | – | – | – | – | –
8 | C/C(=C\n1c2c(c3cc(Cl)ccc31)CN(C)CC2)c1ccccc1F [Compound 213, (E)-8-chloro-5-(2-(2-fluorophenyl)prop-1-enyl)-2-methyl-2,3,4,5-tetrahydro-1H-pyrido[4,3-b]indole] | 100% | 103% | 99% | 76% | 76% | 98% | 100% | – | – | – | – | – | – | – | – | – | –
9 | Cc1ccc2c(c1)c1c(n2CC(O)(c2ccccc2)c2ccc(F)cc2)CCN(C)C1 (stereo not shown) [Compound No. 176, 2-(2,8-dimethyl-3,4-dihydro-1H-pyrido[4,3-b]indol-5(2H)-yl)-1-(4-fluorophenyl)-1-phenylethanol] | 82% | 95% | 74% | 6% | 42% | 97% | 65% | – | – | – | – | – | – | – | – | – | –
10 | CCOC(=O)/C=C(/Cn1c2c(c3cc(C)ccc31)CN(C)CC2)c1ccccc1 [Compound No. 347, (E)-ethyl 4-(2,8-dimethyl-3,4-dihydro-1H-pyrido[4,3-b]indol-5(2H)-yl)-3-phenylbut-2-enoate] | 101% | 111% | 87% | 27% | 90% | 100% | 101% | – | – | – | 30% | – | – | – | – | – | –
11 | CN1CCc2c(c3cc(Cl)ccc3n2C/C(=C\CCO)c2ccc(F)cc2)C1 [Compound No. 348, (Z)-5-(8-chloro-2-methyl-3,4-dihydro-1H-pyrido[4,3-b]indol-5(2H)-yl)-4-(4-fluorophenyl)pent-3-en-1-ol] | 94% | 105% | 73% | 18% | 35% | 99% | 93% | 98% | – | – | 29% | – | 100% | – | – | – | 93/93%
